These results are taken from PMC12142043, “Cell-based high-content approach for SARS-CoV-2 neutralization identifies unique monoclonal antibodies and PI3K pathway inhibitors” (Frontiers in Cell and Developmental Biology, 2025).

Where two headings read alike, the source gives them in different places. A value given as a limit tells only on which side of the number the result lay.

The subject of data set [1] is SARS-CoV-2 (USA-WA1/2020) in Calu-3 cells. As to the kind of experiment: microbe, parasite or virus in culture. It counts as cell-based. The note with it: for Effect on dsRNA / virus in dose response: Figure 5C-F; for EC50: read-out: EC50 (μM) dsRNA.
Data set [2] relates to Calu-3 cells. Briefly: cells. The note with it: Homo sapiens, Calu-3, read-out: EC50 (μM) Cell count.
Data set [3] concerns Calu-3 cells infected with SARS-CoV-2. It counts as cell-based, human. The following applies: for Shift in UMAP space with increasing concentration: Figure 5C-F; for Grouping with red cluster (mock control) in UMAP: high-dose treatment. The arrangement: key to Grouping with red cluster (mock control) in UMAP: *: Clusters with mock control in high-dose treatment.
The subject of data set [4] is Calu-3 cells. The note with it: for Effect on host cell viability and morphology: Figure 5C-F; for EC50: read-out: EC50 (μM) Cell count, Calu-3, DAPI-stained nuclei, above 30 μM reported as >30.
In data set [5] the test system is SARS-CoV-2 (USA-WA1/2020) in Calu-3 cells. The class given is cell-based. The following applies: for dsRNA signal, AU High: high dose (10 µM); for dsRNA signal, AU High / dsRNA signal, AU Low: Calu-3, 48 h; for dsRNA signal, AU Low: low dose (100 nM).
The test system of data set [6] is SARS-Cov-2 WA strain in A549 lung cells. The class given is cell-based.
The mark [7] stands for this setting: Severe acute respiratory syndrome coronavirus 2, Calu-3, 48 h, […], above 30 μM reported as >30.
The mark [8] stands for this setting: […], above 30 μM reported as >30.
The mark [9] stands for this setting: fold: cell count EC50 over dsRNA EC50.

In general, EC50 refers to the midpoint of the concentration-response curve. With `CCc1cc2c(cc1N1CCC(N3CCOCC3)CC1)C(C)(C)c1[nH]c3cc(C#N)ccc3c1C2=O` [CH5424802], the “Effect on dsRNA / virus in dose response” value in data set [1] was “reduced dsRNA very well”. Besides, the EC50 (in data set [1] (setting [7]); with Calu-3 cells [2]) was greater than 30 µM each time. In data set [3], the “Shift in UMAP space with increasing concentration” value is recorded as “adjacent yellow cluster”. The “Effect on host cell viability and morphology” value with Calu-3 cells [4] was “blebbing and general toxicity”.

Regarding `O=C(O[C@@H]1Cc2c(O)cc(O)cc2O[C@@H]1c1cc(O)c(O)c(O)c1)c1cc(O)c(O)c(O)c1` [Epigallocatechin gallate (EGCG), Epigallocatechin gallate], the “EC50 (μM) dsRNA” value in data set [1] (setting [8]) is “None”. Besides, the “Grouping with red cluster (mock control) in UMAP” value (shortened to “Grouping with red cluster”) in data set [3] is on record as “Epigallocatechin gallate (EGCG)*”. For the same compound, the EC50 in the data set on Calu-3 cells [4] was greater than 30 µM. In addition, in data set [5], the “dsRNA signal, AU High” value was 14230.9 AU and the “dsRNA signal, AU Low” value is given as 24448.0 AU.

Regarding `Cc1c(Cn2c(C)nc3c(C(=O)O)cc(N4CCOCC4)cc32)cccc1C(F)(F)F` [GSK2636771], the “Effect on dsRNA / virus in dose response” value in data set [1] is “reduction of dsRNA”. Moreover, in data set [1] (setting [7]), the EC50 was determined as 0.319 µM. For the same compound, the Selectivity index in data set [1] (setting [9]) was greater than 94. In the data set with Calu-3 cells [2], the 50% effective concentration (EC50) is greater than 30 µM. Also, in data set [3], the “Shift in UMAP space with increasing concentration” value is “shift closer to cluster 1 controls” and the “Grouping with red cluster” value is listed as “GSK2636771*”. Besides, the “Effect on host cell viability and morphology” value in the data set with Calu-3 cells [4] is “minimal effect on host cell viability and morphology”. Also, in data set [5] (Figure 4A), the “Reduction of infection in representative images” value is “reduced infection greatly”. Besides, in data set [5], the “dsRNA signal, AU High” value was 841.3 AU and the “dsRNA signal, AU Low” value is given as 28354.9 AU.

In data set [1], `CC(C)n1nc(-c2ccc3oc(N)nc3c2)c2c(N)ncnc21` [INK 128] returned a Selectivity index of 11.590. Further, the EC50 in data set [1] (setting [7]) was 0.213 µM. Also, the EC50 in the data set with Calu-3 cells [2] is 2.47 µM. Also, in data set [3], the “Shift in UMAP space with increasing concentration” value is on record as “moving into cluster 1” and the “Grouping with red cluster” value was “INK 128*”. For the same compound, the “Effect on host cell viability and morphology” value in the data set with Calu-3 cells [4] is “little effect on host cell viability”. The “Synergy (ZIP synergy model)” value in data set [6] is recorded as “Antagonism”. Also, in data set [5], the “dsRNA signal, AU High” value was 0.0 AU and the “dsRNA signal, AU Low” value was 31875.7 AU.

For `CN(c1ncccc1CNc1nc(Nc2ccc3c(c2)CC(=O)N3)ncc1C(F)(F)F)S(C)(=O)=O` [PF-00562271], the EC50 in data set [1] (setting [8]) amounted to 8.6 µM; in the data set with Calu-3 cells [4], 4.39 µM. The compound also gave a Selectivity index in data set [1] (setting [9]) of 0.510. The “Grouping with red cluster” value in data set [3] was “PF-00562271*”. For the same compound, the “dsRNA signal, AU Low” value in data set [5] was 36485.5 AU.

As to `Cc1ccc(Nc2nccc(N(C)c3ccc4c(C)n(C)nc4c3)n2)cc1S(N)(=O)=O.Cl` [Pazopanib HCl], in data set [1] (setting [8]), the concentration for a half-maximal effect (EC50) came to 8.64 µM. This compound had a Selectivity index in data set [1] (setting [9]) greater than 3.5. Also, the “Grouping with red cluster” value in data set [3] is “Pazopanib HCl*”. Besides, the EC50 with Calu-3 cells [4] was greater than 30 µM. Further, in data set [5], the “dsRNA signal, AU High” value is 14157.8 AU and the “dsRNA signal, AU Low” value worked out at 9479.9 AU.
